Experimental data published in the supplement of paper PMC10307832.

Tests used:
Experiment in all cases: relative viability (nuclei count vs DMSO), 5 days (fraction); higher = more cells survive
[1] = compound: COc1cc(-c2nn([C@H]3CC[C@H](N4CCN(C(C)=O)CC4)CC3)c3ncnc(N)c23)ccc1NC(=O)c1cc2ccccc2n1C + N=C(N)NC(=N)NCCc1ccccc1 [Phenformin] (partner 250 µM)
In short: (§1)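 Each reported value is a median over duplicate plates. It expresses relative viability: treated-well nuclei count divided by vehicle-well nuclei count. Lung cancer cell lines in 1536-well plates were dosed by pin tool a day after seeding, alone with one drug or with a fixed anchor-drug dose plus five library-drug doses (not always all listed) in √10 steps, and nuclei were counted after 5 days.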

Midostaurin + AZD7762 = compound: CO[C@@H]1[C@H](N(C)C(=O)c2ccccc2)C[C@H]2O[C@]1(C)n1c3ccccc3c3c4c(c5c6ccccc6n2c5c31)C(=O)NC4 [Midostaurin] + NC(=O)Nc1cc(-c2cccc(F)c2)sc1C(=O)N[C@H]1CCCNC1 [AZD7762] (partner 0.2 µM)
In short: as §1

Midostaurin + Luminespib = compound: CO[C@@H]1[C@H](N(C)C(=O)c2ccccc2)C[C@H]2O[C@]1(C)n1c3ccccc3c3c4c(c5c6ccccc6n2c5c31)C(=O)NC4 [Midostaurin] + CCNC(=O)c1noc(-c2cc(C(C)C)c(O)cc2O)c1-c1ccc(CN2CCOCC2)cc1 [Luminespib] (partner 0.01 µM)
In short: as §1

Midostaurin + Trametinib = compound: CO[C@@H]1[C@H](N(C)C(=O)c2ccccc2)C[C@H]2O[C@]1(C)n1c3ccccc3c3c4c(c5c6ccccc6n2c5c31)C(=O)NC4 [Midostaurin] + CC(=O)Nc1cccc(-n2c(=O)n(C3CC3)c(=O)c3c(Nc4ccc(I)cc4F)n(C)c(=O)c(C)c32)c1 [Trametinib] (partner 0.02 µM)
In short: as §1

[2] = compound: COc1cc(-c2nn([C@H]3CC[C@H](N4CCN(C(C)=O)CC4)CC3)c3ncnc(N)c23)ccc1NC(=O)c1cc2ccccc2n1C + O=C(c1cc(Cc2n[nH]c(=O)c3ccccc23)ccc1F)N1CCN(C(=O)C2CC2)CC1 [Olaparib] (partner 8 µM)
In short: as §1

| Cell Line | relative viability ([1]; first compound 0.0128 µM) | relative viability ([1]; first compound 0.04048 µM) | relative viability ([1]; first compound 0.128 µM) | relative viability ([1]; first compound 1.28 µM) | relative viability (Midostaurin + AZD7762; first compound 0.01 µM) | relative viability (Midostaurin + AZD7762; first compound 0.03162 µM) | relative viability (Midostaurin + AZD7762; first compound 0.1 µM) | relative viability (Midostaurin + AZD7762; first compound 0.3162 µM) | relative viability (Midostaurin + Luminespib; first compound 0.01 µM) | relative viability (Midostaurin + Luminespib; first compound 0.03162 µM) | relative viability (Midostaurin + Luminespib; first compound 0.1 µM) | relative viability (Midostaurin + Luminespib; first compound 0.3162 µM) | relative viability (Midostaurin + Trametinib; first compound 0.01 µM) | relative viability (Midostaurin + Trametinib; first compound 0.03162 µM) | relative viability (Midostaurin + Trametinib; first compound 0.1 µM) | relative viability (Midostaurin + Trametinib; first compound 0.3162 µM) | relative viability ([2]; first compound 0.0128 µM) | relative viability ([2]; first compound 0.04048 µM) | relative viability ([2]; first compound 0.128 µM) | relative viability ([2]; first compound 1.28 µM) |
| --- | --- | --- | --- | --- | --- | --- | --- | --- | --- | --- | --- | --- | --- | --- | --- | --- | --- | --- | --- | --- |
| LCLC-103H | 0.397 | 0.327 | 0.342 | 0.358 | 0.789 | 0.782 | 0.682 | 0.787 | 0.906 | 0.875 | 0.847 | 0.674 | 0.723 | 0.686 | 0.717 | 0.681 | 0.851 | 0.79 | 0.615 | 0.773 |
| LK-2 | 0.423 | 0.38 | 0.408 | 0.485 | 0.494 | 0.408 | 0.346 | 0.679 | 0.191 | 0.221 | 0.187 | 0.199 | 0.767 | 0.713 | 0.855 | 0.618 | 0.779 | 0.674 | 0.6 | 0.385 |
| LOU-NH91 | 0.768 | 0.778 | 0.808 | 0.649 | 0.791 | 0.724 | 0.778 | 0.809 | 0.328 | 0.347 | 0.394 | 0.309 | 0.758 | 0.717 | 0.814 | 0.804 | 0.924 | 1.01 | 0.902 | 0.831 |
| LU99A | 0.938 | 0.59 | 0.85 | 0.882 | 0.29 | 0.441 | 0.303 | 0.255 | 0.268 | 0.221 | 0.228 | 0.291 | 0.592 | 0.558 | 0.421 | 0.456 | 0.284 | 0.29 | 0.286 | 0.263 |
| LXF-289 | 0.545 | 0.497 | 0.492 | 0.46 | 1.14 | 1.13 | 1.07 | 1.09 | 0.692 | 0.706 | 0.482 | 0.596 | 0.687 | 0.653 | 0.671 | 0.685 | 1.17 | 1.08 | 1.11 | 0.982 |
| NCI-H23 | 0.765 | 0.835 | 0.805 | 0.717 | 0.215 | 0.265 | 0.281 | 0.14 | 0.263 | 0.251 | 0.227 | 0.197 | 0.369 | 0.441 | 0.285 | 0.299 | 0.323 | 0.321 | 0.339 | 0.292 |
| NCI-H322M | 0.815 | 0.816 | 0.743 | 0.553 | 0.504 | 0.703 | 0.533 | 0.582 | 0.826 | 0.829 | 0.969 | 1.23 | 0.483 | 0.567 | 0.536 | 0.568 | 0.818 | 0.801 | 0.693 | 0.691 |
| NCI-H358 | 0.329 | 0.283 | 0.254 | 0.187 | 0.475 | 0.513 | 0.571 | 0.391 | 0.241 | 0.309 | 0.263 | 0.298 | 0.146 | 0.158 | 0.133 | 0.14 | 0.587 | 0.513 | 0.526 | 0.374 |
| NCI-H441 | 0.855 | 0.757 | 0.849 | 0.812 | 1.15 | 0.888 | 0.984 | 1.1 | 0.379 | 0.358 | 0.429 | 0.351 | 0.418 | 0.373 | 0.516 | 0.343 | 0.554 | 0.51 | 0.622 | 0.624 |
| NCI-H460 | 0.551 | 0.553 | 0.501 | 0.482 | 0.678 | 0.626 | 0.635 | 0.704 | 0.0367 | 0.0356 | 0.0302 | 0.0369 | 0.176 | 0.174 | 0.116 | 0.12 | 0.48 | 0.47 | 0.312 | 0.386 |
| NCI-H522 | 0.598 | 0.625 | 0.641 | 0.541 | 0.86 | 0.833 | 0.864 | 0.91 | 1.07 | 1.51 | 1.26 | 1.21 | 0.719 | 0.825 | 0.752 | 0.839 | 0.558 | 0.593 | 0.617 | 0.522 |
| NCI-H596 | 0.665 | 0.896 | 0.657 | 0.579 | 1.25 | 1.13 | 1.1 | 1.05 | 1.13 | 1.17 | 0.869 | 1.18 | 0.835 | 0.847 | 0.737 | 0.999 | 0.722 | 0.787 | 0.681 | 0.593 |
| NCI-H647 | 0.526 | 0.528 | 0.428 | 0.4 | 0.576 | 0.392 | 0.41 | 0.324 | 0.191 | 0.181 | 0.141 | 0.264 | 0.491 | 0.593 | 0.552 | 0.372 | 0.646 | 0.567 | 0.514 | 0.373 |
| NCI-H650 | 0.519 | 0.593 | 0.459 | 0.462 | 1.01 | 1.04 | 0.942 | 1.11 | 0.76 | 0.826 | 0.8 | 0.771 | 1.03 | 1.07 | 1 | 0.945 | 0.418 | 0.453 | 0.407 | 0.468 |
| NCI-H727 | 0.559 | – | 0.495 | 0.619 | 0.616 | 0.696 | 0.947 | 0.639 | 0.343 | 0.335 | 0.264 | 0.902 | 0.381 | 0.444 | 0.369 | 0.375 | 0.674 | – | 0.819 | 0.78 |
